Patent US8614220B2, “Substituted pyrazolo-quinazoline derivatives, process for their preparation and their use as kinase inhibitors” (priority 2006, dated 2013)

tested on: A2780 human ovarian cancer cells; assay: In vitro cell proliferation assay (CellTiter-Glo, 72 hours); assay type: cell-based
Description: In Vitro Cell Proliferation Assay
A2780 human ovarian and MCF7 human breast cancer cells (1250 cells/well) were seeded in white 384 well-plates in complete medium (RPMI1640 or EMEM plus 10% Fetal bovine serum) and treated with compounds dissolved in 0.1% DMSO, 24 h after seeding. The cells were incubated at 37° C. and 5% CO2 and after 72 hours the plates were processed using CellTiter-Glo assay (Promega) following the manufacturer's instruction.
CellTiter-Glo is a homogenous method based on the quantification of the ATP present, an indicator of metabolitically active cells. ATP is quantified using a system based on luciferase and D-luciferin resulting into light generation. The luminescent signal is proportional to the number of cells present in culture.
Briefly 25 microL/well reagent solution are added to each wells and after 5 minutes shacking microplates are red by a luminometer. The luminescent signal is proportional to the number of cells present in culture.

Row | SMILES | IC50
1 | NC(=O)c1nn(CCF)c2c1CCc1cnc(Nc3ccccc3OC(F)(F)F)nc1-2 [Code A45B2C1Z] | 0.5 µM
2 | COc1ccc(CO)cc1Nc1ncc2c(n1)-c1c(c(C(N)=O)nn1C)CC2 [Code A47B1C1Z] | 0.147 µM
3 | Cc1ccc(N2CCN(C)CC2)cc1Nc1ncc2c(n1)-c1c(c(C(=O)O)nn1C)CC2 [Code A98B1C3Z] | 1.3 µM
4 | CN(C)CCCN1CCN(c2ccc(OC(F)(F)F)c(Nc3ncc4c(n3)-c3c(c(C(N)=O)nn3C)CC4)c2)CC1 [Code A101B1C1Z] | 0.52 µM
